From patent US9408853B2, “Iridium/rhodium anti-cancer compounds” (University of Warwick, priority 2010, dated 2016)

Assays:
9-ethyladenine (9-EtA) = experiment: Interactions with nucleobases: 9-EtA adduct formation (1H NMR); type: binding; conditions: 1 mM, 1 mol equiv 9-EtA, D2O, 310 K
Description: (§1) Interactions with Nucleobases. The reaction of ZL01, ZL03, ZL04, ZL07, ZL25, ZL33, ZL37, ZL38, ZL43 and ZL54 and ZL33A with nucleobases typically involved addition of a solution containing 1-2 mol equiv of nucleobase in D2O, to an equilibrium solution of ZL01, ZL03, ZL04, ZL07, ZL25, ZL33, ZL37, ZL38, ZL43, ZL54 and ZL33A in a solution of 5% MeOD-d4/95% D2O (v/v). ^1H NMR spectra of these solutions were recorded at 310 K after various time intervals.
(§2) Since DNA is a potential target site for transition metal anticancer complexes,^18 nucleobase binding reactions of compounds ZL01, ZL03, ZL04, ZL07, ZL25, ZL33, ZL33A, ZL37, ZL38, ZL43 and ZL54 with nucleobase models 9-ethylguanine (9-EtG) and 9-ethyladenine (9-EtA), were investigated. Solutions of ZL01, ZL03, ZL04, ZL07, ZL25, ZL33, ZL37, ZL38, ZL43 and ZL54 (1 mM) (containing an equilibrium mixture of these complexes and their respective aqua adducts) with 1 mol equivalent of 9-EtG or 9-EtA in D2O were prepared, and ^1H NMR spectra were recorded at different time intervals.

[1] = Kinetics of hydrolysis followed by 1H NMR; type: physicochemical; conditions: for k (hydrolysis): 0.2 mM, 5% MeOD-d4/95% D2O, pH* 3; for Ea (Arrhenius activation energy of hydrolysis): from Arrhenius plot; for ΔH^‡ (activation enthalpy of hydrolysis) / ΔS^‡ (activation entropy of hydrolysis): from Eyring plot; for rate of hydrolysis (in words): 1H NMR, even at 278K
Description: Kinetics for Hydrolysis. Although complexes ZL01-ZL04, ZL07, ZL38 and ZL43 hydrolyzed too rapidly to monitor by ^1H NMR, The kinetics of hydrolysis for complexes ZL25, ZL33, ZL37 and ZL54 were followed by ^1H NMR at different temperatures. For this, solutions of the complexes with a final concentration of 0.2 mM in 5% MeOD-d4/95% D2O (v/v) were prepared by dissolution of the complexes in MeOD-d4 followed by rapid dilution using D2O with a pH* of about 3 (acidified with HClO4), so that the aqua ligand was not deprotonated. ^1H NMR spectra were taken after various time intervals. The rates of hydrolysis were determined by fitting plots of concentrations (determined from ^1H NMR peak integrals) versus time to a pseudo first-order equation using ORIGIN version 7.0. The Arrhenius activation energy (Ea), activation enthalpies (ΔH^¢), and activation entropy (ΔS^‡) for compounds ZL25, ZL33, ZL37 and ZL54 were determined from the slopes of the Arrhenius and intercepts of Eyring plots.
The rates of hydrolysis of compounds ZL01-ZL04, ZL07, ZL25, ZL33, ZL37, ZL38, ZL43 and ZL54 in a 5% MeOD-d4/95% D2O were monitored by ^1H NMR at different temperature from 278 to 298 K by the observation of new peaks over time due to aqua adduct formation. Five percent MeOD was used to improve solubility, and acidic conditions (D2O, pH* 3) were used to prevent the deprotonation of the aqua complex as a secondary reaction. […] The percentage of aqua peak formation for ZL25, ZL33, ZL37 and ZL54 was plotted against time and was fitted to pseudofirst order kinetics (FIG. 3), and their halflife times were calculated (Table 1). The Arrhenius activation energy (Ea), activation enthalpy (ΔH^¢), and activation entropy (ΔS^‡) of compound ZL25, ZL33, ZL37 and ZL54 are listed in Table 4. The large negative ΔS^‡value for compound ZL54 is notable. The extent of hydrolysis at equilibrium is medium for all compounds, ranged from 30% to 60%.

[2] = system: ca. 60 cell lines within nine tumour type subpanels; type: cell-based
From the text: Six complexes, [(η^5-C5Me4C6H4C6H5)Ir(bpy)Cl]PF6 (ZL25, bpy=2,2′-bipyridine), [(η^5-C5Me4C6H5)Ir(phen)Cl]PF6 (ZL33, phen=1,10-phenanthroline), [(η^5-C5Me4C6H4C6H5) Ir(pico)Cl] (ZL43, pico=picolinate), [(η^5-C5Me5)Ir(2-phpy)Cl] (ZL47), [(η^5-C5Me4C6H4C6H5)Ir(2-phPY)(D2O)Cl] (ZL49) and [(η^5-C5Me4C6H4C6H5) Ir(phen)Cl]PF6 (ZL54), were selected by Developmental Therapeutics Program of National Cancer Institute (NCI, U.S.A.) for in vitro screening test, in which 5 complexes except ZL43 are selected for further testing. The five complexes were tested on ca. 60 cell lines within nine tumour type subpanels at five concentrations ranging from 0.01 to 100 μM.

[3] = system: human ovarian A2780 cancer cells; experiment: Cancer cell cytotoxicity, SRB assay; type: cell-based; conditions: 24 h exposure, 72 h recovery, SRB; read-out: A2780 IC50
Description: Cancer Cell Cytotoxicity. After plating, human ovarian A2780 cancer cells were treated with Ir^III complexes on day 3 at concentrations ranging from 0.5 μM to 100 μM. Solutions of the Ir^III complexes were made up in 0.125% DMSO to assist dissolution. Stock solutions of the IrIII complexes were firstly prepared in DMSO to assist dissolution, and then diluted into 0.9% saline and medium. After plating 5000 A2780 cells per well on day 1, IrIII complexes were added to the cancer cells on day 3 at concentrations ranging from 0.05 μM to 100 μM. Cells were exposed to the complexes for 24 h, washed, supplied with fresh medium, allowed to grow for three doubling times (72 h), and then the protein content measured (proportional to cell survival) using the sulforhodamine B (SRB) assay.^15 […]. The standard errors are based on two independent experiments of three replicates each.

9-ethylguanine (9-EtG) = experiment: Interactions with nucleobases: 9-EtG adduct formation (1H NMR); type: binding; conditions: 310 K; for Reaction with 9-EtG, extent of adduct formation: 1 mM, 1 mol equiv 9-EtG (ZL33A: 2 mol equiv), D2O
Description: as §1, §2
Interactions with Nucleobases. Since DNA is a potential target site for transition metal anticancer complexes,^23 the binding of 9-ethylguanine (9-EtG) to complexes ZL47, ZL49, ZL69, ZL74 and ZL107 was studied.

CH1 cancer cell line = experiment: Cytotoxicity, MTT assay (Brabec group); type: cell-based; conditions: for IC50: 72 h incubation, MTT; for cytotoxicity towards CH1 (in words): highest test concentration 130 μM
Description: (§3) The cytotoxicity test of ZL07, ZL33, ZL38 and ZL54 against A2780, SW480, A549 and CH1 cell lines was performed by Viktor Brabec group (Institute of Biophysics, Academy of Sciences of the Czech Republic). After plating, the cells were treated with ZL07, ZL33, ZL38 and ZL54. After 72h of incubation 10 μl of MTT (2.5 mg/ml; CALBIOCHEM) was added to each well and incubated for 4 h in culture conditions. At the end of the incubation period the medium was removed and the formazan product was dissolved in 100 μl DMSO. The cell viability was evaluated by measurement of the absorbance at 570 nm, using an Absorbance Reader SUNRICE TECAN SCHOELLER. […] All experiments were made in quadruplicate.

A549 cancer cell line = experiment: Cytotoxicity, MTT assay (Brabec group); type: cell-based; conditions: for IC50: 72 h incubation, MTT
Description: as §3

SW480 cancer cell line = experiment: Cytotoxicity, MTT assay (Brabec group); type: cell-based; conditions: for IC50: 72 h incubation, MTT; for cytotoxicity towards SW480 (in words): highest test concentration 130 μM
Description: as §3

[4] = Hydrolysis studies of C,N-chelated complexes and anation by NaCl (1H NMR); type: physicochemical; conditions: 20% MeOD-d4/80% D2O; equilibrium reached within ~5 min even at 278 K
From the text: Hydrolysis Studies. The hydrolysis of complexes [(η^5-C5Me5)Ir(2-phpy)Cl] (ZL47), [(η^5-C5Me4C6H4C6H5)Ir(2-phpy)Cl] (ZL49), [(η^5-C5Me5) Ir(2-phq)Cl] (ZL68), [(η^5-C5Me5) Ir(tpy)Cl] (ZL69), [(η^5-C5Me5)Ir(2-dfphpy)Cl] (ZL74) and [(η^5-C5Me4C6H5)Ir(2-phpy) Cl] (ZL107) in 20% MeOD-d4/80% D2O (v/v) was monitored by ^1H NMR at different temperatures. The presence of methanol ensured the solubility of the complexes.

Cc1c(C)c(-c2ccc(-c3ccccc3)cc2)[c-](C)c1C.F[P-](F)(F)(F)(F)F.[Cl-].[Ir+3].c1ccc(-c2ccccn2)nc1 (stereo not drawn) [ZL25, [(η^5-C5Me4C6H4C6H5)Ir(bipy)Cl]PF6]
Reaction with 9-EtA, extent of adduct formation (9-ethyladenine (9-EtA); 10 min): 0%
Reaction with 9-EtA, extent of adduct formation (9-ethyladenine (9-EtA); 24 h): 0%
k (hydrolysis) ([1]; 278 K): 0.0249 min⁻¹
k (hydrolysis) ([1]; 283 K): 0.0405 min⁻¹
k (hydrolysis) ([1]; 293 K): 0.0986 min⁻¹
Ea (Arrhenius activation energy of hydrolysis) [1]: 14.4 kcal/mol
ΔH^‡ (activation enthalpy of hydrolysis) [1]: 13.9 kcal/mol
ΔS^‡ (activation entropy of hydrolysis) [1]: −66.02 J K^−1mol^−1
CC50 [2]: 67.6 µM
Mean graph midpoint (MID) TGI ([2]; ca. 60 cell lines, 0.01 to 100 μM): 19.1 µM
GI50 ([2]; ca. 60 cell lines, 0.01 to 100 μM, read-out: Mean graph midpoint (MID) GI50): 4.1 µM
selectivity among tumour type subpanels (in words) ([2]; mean graphs): selectivity with higher activity not only towards leukemia, CNS cancer, melanoma, and prostate cancer, but also against colon cancer and breast cancer
IC50 [3]: 0.57 µM
Reaction with 9-EtG, extent of adduct formation (9-ethylguanine (9-EtG); 10 min): 24.2%

N.N.[Cl][Pt][Cl] [Cisplatin, reference compound]
IC50 (CH1 cancer cell line): 0.59 ± 0.1 µM
IC50 (A549 cancer cell line): 5.9 ± 1.9 µM
IC50 (SW480 cancer cell line): 9.24 ± 1.1 µM
IC50 [3]: 1.2 µM

Cc1c(C)c(C)[c-](C)c1C.Cc1c[c-]c(-c2ccccn2)cc1.[Cl-].[Ir+3] [ZL69, [(η^5-C5Me5)Ir(tpy)Cl]]
hydrolysis (in words) [4]: rapid hydrolysis
IC50 [3]: 3.28 ± 0.14 µM
guanine adducts formed (9-ethylguanine (9-EtG); 24 h, ca. 1.0 mM, 1 mol equiv 9-EtG, 20% MeOD-d4/80% D2O): 100%

Cc1c(C)c(C)[c-](C)c1C.[Cl-].[Cl-].[Ir+3].c1cnc2c(c1)ccc1cccnc12 [ZL07, [(η^5-C5Me5)Ir(phen)Cl]Cl]
Reaction with 9-EtA, extent of adduct formation (9-ethyladenine (9-EtA); 10 min): 0%
Reaction with 9-EtA, extent of adduct formation (9-ethyladenine (9-EtA); 24 h): 0%
rate of hydrolysis (in words) [1]: too rapid to be observed
IC50 (CH1 cancer cell line): 50.7 ± 2.8 µM
cytotoxicity towards CH1 (in words) (CH1 cancer cell line): moderate activity
IC50 (A549 cancer cell line): > 130 µM
IC50 (SW480 cancer cell line): 80.1 ± 1.5 µM
cytotoxicity towards SW480 (in words) (SW480 cancer cell line): moderate activity
IC50 [3]: > 100 µM
Reaction with 9-EtG, extent of adduct formation (9-ethylguanine (9-EtG); 10 min): 73.1%

Cc1c(C)c(-c2ccc(-c3ccccc3)cc2)[c-](C)c1C.F[P-](F)(F)(F)(F)F.[Cl-].[Ir+3].c1cnc2c(c1)ccc1cccnc12 (stereo not drawn) [ZL54, [(η^5-C5Me4C6H4C6H5)Ir(phen)Cl]PF6]
Reaction with 9-EtA, extent of adduct formation (9-ethyladenine (9-EtA); 10 min): 0%
Reaction with 9-EtA, extent of adduct formation (9-ethyladenine (9-EtA); 24 h): 0%
k (hydrolysis) ([1]; 278 K): 0.0179 min⁻¹
k (hydrolysis) ([1]; 288 K): 0.0352 min⁻¹
k (hydrolysis) ([1]; 293 K): 0.0516 min⁻¹
Ea (Arrhenius activation energy of hydrolysis) [1]: 10.9 kcal/mol
ΔH^‡ (activation enthalpy of hydrolysis) [1]: 10.4 kcal/mol
ΔS^‡ (activation entropy of hydrolysis) [1]: −121.2 J K^−1mol^−1
IC50 (CH1 cancer cell line): 0.69 ± 0.04 µM
IC50 (A549 cancer cell line): 1.58 ± 0.4 µM
times more active than cisplatin (A549 cancer cell line; A549): ~3.7 times
IC50 (SW480 cancer cell line): 1.38 ± 0.2 µM
times more active than cisplatin (SW480 cancer cell line; SW480): about 6.7 times
IC50 [3]: 0.72 µM
Reaction with 9-EtG, extent of adduct formation (9-ethylguanine (9-EtG); 10 min): 62.2%

Cc1c(C)c(-c2ccccc2)[c-](C)c1C.O=C([O-])c1ccccn1.[Cl-].[Ir+3] (stereo not drawn) [ZL38, [(η^5-C5Me4C6H5)Ir(η^2-C5H4N-2-CO2)Cl]]
Reaction with 9-EtA, extent of adduct formation (9-ethyladenine (9-EtA); 10 min): 76.0%
Reaction with 9-EtA, extent of adduct formation (9-ethyladenine (9-EtA); 24 h): 76.0%
rate of hydrolysis (in words) [1]: too rapid to be observed
IC50 (CH1 cancer cell line): > 130 µM
cytotoxicity towards CH1 (in words) (CH1 cancer cell line): nontoxic
IC50 (A549 cancer cell line): > 130 µM
cytotoxicity towards A549 (in words) (A549 cancer cell line; highest test concentration 130 μM): nontoxic
IC50 (SW480 cancer cell line): > 130 µM
cytotoxicity towards SW480 (in words) (SW480 cancer cell line): nontoxic
IC50 [3]: > 100 µM
Reaction with 9-EtG, extent of adduct formation (9-ethylguanine (9-EtG); 10 min): 100%
Reaction with 9-EtG, extent of adduct formation (9-ethylguanine (9-EtG); 24 h): 100%

Cc1c(C)c(C)[c-](C)c1C.[Cl-].[Ir+3].[c-]1ccccc1-c1ccc2ccccc2n1 [ZL68, [(η^5-C5Me5)Ir(2-phq)Cl]]
hydrolysis (in words) [4]: rapid hydrolysis
IC50 [3]: 2.55 ± 0.03 µM
